These results are taken from paper PMC8778022, “Synthesis and Biological Activity of 3-(Heteroaryl)quinolin-2(1H)-ones Bis-Heterocycles as Potential Inhibitors of the Protein Folding Machinery Hsp90” (Molecules, 2022).

Like-named read-outs stand apart in the source and are kept apart here.

The test system of one series is SkBr3 cell lines. Conditions: cited from earlier work.
The subject of a further series is MDA-MB-231 cells. Nature of the series: MTS cell viability assay, MDA-MB-231 cells, 72 h. In kind it is cell-based, human. The following applies: % of viable cells compared to untreated cells 100%; for viability at 25 µM / viability at 10 µM / viability at 15 µM: Homo sapiens, MDA-MB-231, 72 h. The protocol:
(§1) Upon completion of their syntheses, the in vitro activity of quinolone derivatives 3a–f, 4a–h, and 5a,b was evaluated by their growth-inhibitory potency in three cancer cell lines. At first, the viability of the synthesized compounds was examined with the MDA-MB-231 […] breast cancer cell line at concentrations of 10 µM, 15 µM, and 25 µM. Prostate cancer PC-3 cells and human fetal lung fibroblast MRC-5 cell lines were also subjected to this series of compounds at a unique concentration of 15 µM.
(§2) MDA-MB-231 cells were grown in L15 supplemented with 15% serum, 2 mM glutamine, and 22 mM sodium bicarbonate in the presence of Penicillin/Streptomycin antibiotic mixture. PC-3 cells were cultured in RPMI 1640 supplemented with 10% serum and 2 mM glutamine in the presence of Penicillin/Streptomycin antibiotic mixture. MRC-5 cells were cultured in EMEM supplemented with 10% serum and 2 mM glutamine in the presence of Penicillin/Streptomycin antibiotic mixture (Reagents were purchased from Sigma Aldrich, Saint-Quentin-Fallavier, France).
(§3) Cells were treated for 72 h with 10, 15, and 25 µM of the selected substances. Control cells were treated with the equivalent in DMSO.
(§4) Cell survival was assessed using the CellTiter Aqueous One Proliferation assay (Promega, Charbonnières-les-Bains, France) whereby 2500 or 5000 cells per well were seeded in 96-well plates in 100 µL. At the end of the treatment, 20 µL of reagent was added, and absorbance readings were taken at 492 nm on a 96-well plate reader after 3 h of contact (on average).

A short description of series [1]: MTS cell viability assay, MRC-5 cells, 72 h. In kind it is cell-based, human. Conditions: human, MRC-5 fetal lung fibroblast cells, % of viable cells compared to untreated cells 100%. The protocol: as §1, §2, §3, §4
The next series has as its system colon carcinoma cells. Also on record: method as in PMID 34952432. Conditions: cited from earlier work.
For the next series, the system named is MCF7. Conditions: Figure 1; cited from earlier work.
Series [2] has as its system human fetal lung fibroblast MRC-5. The series is described as follows: MTS cell viability assay, MRC-5 cells, 72 h. The class given is cell-based. The following applies: % of viable cells compared to untreated cells 100%. The protocol:
as §1, §2, §3, §4

The next series concerns PC-3 cells. The series is described as follows: MTS cell viability / growth inhibition assay, PC-3 cells, 72 h. In kind it is cell-based, human. The method, then: as §1
Then, the growth inhibitory activities against PC-3 prostate cancer cell line were measured for the selected 3-heteroaryl-quinolin-2(1H)-one derivatives 3a–e.
as §2, §3, §4

Series [3] deals with MCF-7 breast cancer cell line. Conditions: earlier studies on mode of action; cited from earlier work.
For another series, the system named is PC3. Conditions: earlier studies on mode of action; cited from earlier work.
Series [4] has as its system Hsp90 client proteins (HER2, Raf-1 and cdk-4). Conditions: earlier studies on mode of action; cited from earlier work.

For the compound `CC(C)NCCCn1c(Sc2cc3c(cc2I)OCO3)nc2c(N)ncnc21` [PU-H], the half-maximal inhibitory concentration (IC50) in the series on SkBr3 cell lines (Figure 1) is 0.05 to 0.09 µM.

Compound `Cn1c(=O)c(-c2nc3c(-c4ccc(Cl)cc4)ncnc3n2Cc2ccccc2)cc2ccccc21` [4g, 3-[9-benzyl-6-(4-chlorophenyl)-9H-purin-8-yl]-1-methylquinolin-2(1H)-one] gave a melting point of 202 to 203 °C. Moreover, in the series on MDA-MB-231 cells (25 µM), the viability at 25 µM is ~30%. For the same compound, the viability at 72 h, 15 µM in [1] is 71 to 79%.

On to `Cn1c(=O)c(NC(=O)c2ccc(OCCCCCCCCCC[P+](c3ccccc3)(c3ccccc3)c3ccccc3)cc2)cc2cc(Br)ccc21.[Br-]` [6BrCaQ-C10-TPP], for which, in the series with colon carcinoma cells, the mitochondrial membrane disruption entry is “significant mitochondrial membrane disruption”.

Turning to `CO[C@@H]1[C@@H](OC(N)=O)[C@@H](O)[C@H](Oc2ccc3c(O)c(NC(=O)c4ccc(O)c(CC=C(C)C)c4)c(=O)oc3c2C)OC1(C)C` [Novobiocin, novobiocin], in the series with MCF7, the IC50 was 260 µM.

Regarding `Cn1c(=O)c(-c2nc3c(-c4ccc(Cl)cc4)ncnc3n2Cc2ccccc2)cc2ccccc21` [C00013], in the series on MDA-MB-231 cells (25 µM), the “Cell viability [%] MDA-MB-231” value is given as 27%. In the series with MDA-MB-231 cells, this compound gave a viability at 10 µM of 56% and a viability at 15 µM of 57%. Besides, the “Cell viability [%] MRC-5 (15 µM)” value in series [2] is on record as 79%. The compound further had a viability at 15 µM in the series with PC-3 cells (Homo sapiens, PC-3, 72 h, 15 µM, 72 h, MTS, % of viable cells compared to untreated cells 100%) of 91%.

In the series on MDA-MB-231 cells, `Cc1cc(C)cc(-c2ncnc3c2nc(-c2cc4ccccc4n(C)c2=O)n3Cc2ccccc2)c1` [C00011] showed a viability at 10 µM of 57% and a viability at 15 µM of 62%. Further, in the series on MDA-MB-231 cells (25 µM), the viability at 25 µM worked out at 50%. Further, in [2], the “Cell viability [%] MRC-5 (15 µM)” value was 71%. Moreover, in the series with PC-3 cells (15 µM, 72 h, MTS, % of viable cells compared to untreated cells 100%), the “Cell viability [%] PC-3 (15 µM)” value is listed as 56%.

As for `CN1CCC(Oc2ccc3cc(-c4cc5ccccc5s4)c(=O)oc3c2)CC1` [(I)], the IC50 in the series with SkBr3 cell lines (cell death, SkBr3) is 0.98 µM.

Turning to `COc1ccc(C(=O)Nc2cc3cc(Br)ccc3n(C)c2=O)cc1` [6BrCaQ], the apoptosis level entry (in [3]; with PC3) was “high apoptosis level” each time. The IC50 with MCF7 was 7 µM. Also, in the series on PC-3 cells (Homo sapiens, PC-3, concentration needed to reduce cell growth by 50%, 72 h treatment, estimated, read-out: GI50 anti-proliferative effect PC-3), the GI50 is 10 µM. Besides, in series [4], the “Hsp90 client proteins (HER2, Raf-1 and cdk-4)” value is listed as “downregulation”.
